According to patent US20040209777A1, “Agents for improving the qualities of fruits/grains” (priority 2001, published 2004):
Like-named read-outs stand apart in the source and are kept apart here.

What was measured:
Japanese pear “Kousui” [1] = tested on: Japanese pear “Kousui”
Method: Regarding the sugar concentration of fruits, the sugar content (Brix) of the fruits harvested on August 24 of the year. The content of the individual sugar species was measured by selecting 10 fruits from each section to obtain fruit juices prepared by pressing the fruits, filtering each juice with a membrane filter having a 0.45 μm diameter, and then, quantifying the sugar content for every sugar species by HPLC (Column: “Shim-pack SCR-101C”, Column temperature: 80° C., Solvent: water (1 mL/min); and Detector: RI).

Japanese pear “Kousui” [2] = details: observed on February 5
Method: The flower bud differentiation rate was surveyed by observing winter buds with the unaided eye for each of long fruiting branches and short fruiting branches for every section on February 5 of the next year. The flower bud differentiation rate was calculated as a proportion of the flower bud number (mixed flower buds) to the total winter bud number, provided that the last-year branch was regarded as 1 unit, to which branch a long fruiting branch or a short fruiting branch attached.

Japanese pear “Kousui” [3] = details: average Score (+3 to −3) of sprayed product, non-sprayed product = Score 0
Method: In this connection, the scores of the sprayed product shown in Table 5 were counted by the following way. I.e., this was carried out in a paired comparison method where the “non-sprayed product” was assigned to Score 0 (control), and the “sprayed product” was scored by 7-class evaluation consisting of Scores +3, +2, +1, 0, −1, −2, and −3, employing a plurality of panels. Next, average values of the results of scoring the “sprayed product” by the plurality of panels were calculated and the average values were assigned to the Scores of the “sprayed product” in Table 5.

[4] = tested on: adult grape tree (cultivar Cabernet sauvignon)
Method: The aqueous proline solution, which had been prepared by dissolving the high purity proline as described above into water to provide a 200 ppm concentration and adding 10 mL of “ATLOX BI” (wetting agent) thereto, was sprayed on the adult grape tree (cultivar Cabernet sauvignon) with an interval of 15 days during the period from the end of June to the middle of September in a year, which is the véraison period as the fruit growing period.
The sprayed amount was a certain amount to allow the solution to drop down from the leaf surfaces. The control section was assigned to another non-sprayed adult tree. Both the test section and the control section were harvested on October 25 in that year to analyze sweetness and a red-colored state. Sweetness was evaluated in terms of the sugar content (Brix) of a juice prepared by mixing and pulverizing seed-removed fruits and pericarps. Colored state (red) was evaluated by measuring a light absorbance of the juice at 522 nm.
According to the market evaluation for a grape cultivar for red wine and a red grape cultivar such as Kyohou, the stronger the coloration (red) of the pericarp is, the better the quality is.

Japanese pear “Kousui” [5] = tested on: Japanese pear “Kousui”; remark: listed apart in the source
[6] = pear fruit juice, harvested on August 24, HPLC, n = 10
[7] = grape juice, harvested October 25, 200 ppm proline sprayed every 15 days

In the case of `O=C(O)[C@@H]1CCCN1` [proline, L-proline], the “Fructose content in the fruits” value (Japanese pear “Kousui” [1]; [6]) is reported as 56.74 mg/mL, the “Glucose content in the fruits” value (Japanese pear “Kousui” [1]; [6]) is reported as 18.67 mg/mL and the “Sorbitol content in the fruits” value (Japanese pear “Kousui” [1]; [6]) is reported as 28.83 mg/mL. The “Sucrose content in the fruits” value (Japanese pear “Kousui” [1]; [6]) was 62.09 mg/mL, the “Total individual sugar contents in the fruits” value (Japanese pear “Kousui” [1]; [6]) was 166.12 mg/mL and the “Sugar content (Brix)” value (Japanese pear “Kousui” [1]; pear fruits harvested on August 24, 200 ppm proline sprayed) was 11.7 ± 0.1 Brix. The pericarp color (Japanese pear “Kousui” [1]; pear fruits harvested on August 24, proline-treated section) was “somewhat red pericarp”, the “flower bud differentiation rate” value (Japanese pear “Kousui” [2]; long fruiting branch, Total) was 39.83% and the “flower bud differentiation rate” value (Japanese pear “Kousui” [2]; long fruiting branch, Tree No. 1) was 40.60%. For the same compound, the “flower bud differentiation rate” value (Japanese pear “Kousui” [2]; long fruiting branch, Tree No. 2) was 39.05%, the “flower bud differentiation rate” value (Japanese pear “Kousui” [2]; short fruiting branch, Total) was 39.38% and the “flower bud differentiation rate” value (Japanese pear “Kousui” [2]; short fruiting branch, Tree No. 1) was 40.83%. For the same compound, the “flower bud differentiation rate” value (Japanese pear “Kousui” [2]; short fruiting branch, Tree No. 2) was 37.93%, the Apparent color (Japanese pear “Kousui” [3]) was 0.06 and the Comprehensive evaluation (Japanese pear “Kousui” [3]) was 0.74. The Hardness (Japanese pear “Kousui” [3]) was −0.13, the Juiciness (Japanese pear “Kousui” [3]) was 0.02 and the Preferableness of sourness (Japanese pear “Kousui” [3]) was −0.06. The Preferableness of sweetness (Japanese pear “Kousui” [3]) was 0.43, the “Preferableness of whole aroma” value (Japanese pear “Kousui” [3]) was 0.64 and the “Preferableness of whole feeling upon eating” value (Japanese pear “Kousui” [3]) was 0.31. The “Preferableness of whole flavor” value (Japanese pear “Kousui” [3]) was 0.50, the “Preferableness of whole taste” value (Japanese pear “Kousui” [3]) was 0.61 and the Strength of sourness (Japanese pear “Kousui” [3]) was −0.19. The Strength of sweetness (Japanese pear “Kousui” [3]) was 0.95, the “Strength of whole aroma” value (Japanese pear “Kousui” [3]) was 0.26 and the “Strength of whole flavor” value (Japanese pear “Kousui” [3]) was 0.57. For the same compound, the “Strength of whole taste” value (Japanese pear “Kousui” [3]) was 0.79, the Tongue feeling (Japanese pear “Kousui” [3]) was −0.19 and the Unripe flavor (Japanese pear “Kousui” [3]) was −0.41. The “Colored degree (OD at 522 nm)” value [4, 7] was 0.14 OD at 522 nm, the “Sugar content (Brix)” value [4, 7] was 20.3 Brix and the “increment of anthocyanin content in the juice” value ([4]; grape juice, proline-sprayed section vs control section) was “about 20%”. The “difference in the size of fruits” value ([4]; grape, proline-sprayed section vs control section) was “No difference”, the “drug damage caused by spraying” value (Japanese pear “Kousui” [5]; Japanese pear “Kousui”, 200 ppm proline sprayed on leaves) was “any drug damage caused by spraying has not been observed” and the “Harvested number of pears” value (Japanese pear “Kousui” [5]; Total of all fruit sizes, Total of harvest days, 200 ppm proline sprayed on leaves) was 638. The “Harvested number of pears” value (Japanese pear “Kousui” [5]; Total of all fruit sizes, harvest day August 18, 200 ppm proline sprayed on leaves) was 130, the “Harvested number of pears” value (Japanese pear “Kousui” [5]; Total of all fruit sizes, harvest day August 21, 200 ppm proline sprayed on leaves) was 185 and the “Harvested number of pears” value (Japanese pear “Kousui” [5]; Total of all fruit sizes, harvest day August 24, 200 ppm proline sprayed on leaves) was 323. For the same compound, the “Harvested number of pears” value (Japanese pear “Kousui” [5]; fruit size 2L, Total of harvest days, 200 ppm proline sprayed on leaves) was 115, the “Harvested number of pears” value (Japanese pear “Kousui” [5]; fruit size 2L, harvest day August 18, 200 ppm proline sprayed on leaves) was 33 and the “Harvested number of pears” value (Japanese pear “Kousui” [5]; fruit size 2L, harvest day August 21, 200 ppm proline sprayed on leaves) was 46. For the same compound, the “Harvested number of pears” value (Japanese pear “Kousui” [5]; fruit size 2L, harvest day August 24, 200 ppm proline sprayed on leaves) was 36, the “Harvested number of pears” value (Japanese pear “Kousui” [5]; fruit size 3L, Total of harvest days, 200 ppm proline sprayed on leaves) was 233 and the “Harvested number of pears” value (Japanese pear “Kousui” [5]; fruit size 3L, harvest day August 18, 200 ppm proline sprayed on leaves) was 46. The “Harvested number of pears” value (Japanese pear “Kousui” [5]; fruit size 3L, harvest day August 21, 200 ppm proline sprayed on leaves) was 64, the “Harvested number of pears” value (Japanese pear “Kousui” [5]; fruit size 3L, harvest day August 24, 200 ppm proline sprayed on leaves) was 123 and the “Harvested number of pears” value (Japanese pear “Kousui” [5]; fruit size 4L, Total of harvest days, 200 ppm proline sprayed on leaves) was 160. For the same compound, the “Harvested number of pears” value (Japanese pear “Kousui” [5]; fruit size 4L, harvest day August 18, 200 ppm proline sprayed on leaves) was 25, the “Harvested number of pears” value (Japanese pear “Kousui” [5]; fruit size 4L, harvest day August 21, 200 ppm proline sprayed on leaves) was 32 and the “Harvested number of pears” value (Japanese pear “Kousui” [5]; fruit size 4L, harvest day August 24, 200 ppm proline sprayed on leaves) was 103. For the same compound, the “Harvested number of pears” value (Japanese pear “Kousui” [5]; fruit size 5L, Total of harvest days, 200 ppm proline sprayed on leaves) was 31, the “Harvested number of pears” value (Japanese pear “Kousui” [5]; fruit size 5L, harvest day August 18, 200 ppm proline sprayed on leaves) was 0 and the “Harvested number of pears” value (Japanese pear “Kousui” [5]; fruit size 5L, harvest day August 21, 200 ppm proline sprayed on leaves) was 4. For the same compound, the “Harvested number of pears” value (Japanese pear “Kousui” [5]; fruit size 5L, harvest day August 24, 200 ppm proline sprayed on leaves) was 27, the “Harvested number of pears” value (Japanese pear “Kousui” [5]; fruit size L, Total of harvest days, 200 ppm proline sprayed on leaves) was 55 and the “Harvested number of pears” value (Japanese pear “Kousui” [5]; fruit size L, harvest day August 18, 200 ppm proline sprayed on leaves) was 19. The “Harvested number of pears” value (Japanese pear “Kousui” [5]; fruit size L, harvest day August 21, 200 ppm proline sprayed on leaves) was 18, the “Harvested number of pears” value (Japanese pear “Kousui” [5]; fruit size L, harvest day August 24, 200 ppm proline sprayed on leaves) was 18 and the “Harvested number of pears” value (Japanese pear “Kousui” [5]; fruit size M, Total of harvest days, 200 ppm proline sprayed on leaves) was 20. For the same compound, the “Harvested number of pears” value (Japanese pear “Kousui” [5]; fruit size M, harvest day August 18, 200 ppm proline sprayed on leaves) was 0, the “Harvested number of pears” value (Japanese pear “Kousui” [5]; fruit size M, harvest day August 21, 200 ppm proline sprayed on leaves) was 11 and the “Harvested number of pears” value (Japanese pear “Kousui” [5]; fruit size M, harvest day August 24, 200 ppm proline sprayed on leaves) was 9. The “Harvested number of pears” value (Japanese pear “Kousui” [5]; fruit size S, Total of harvest days, 200 ppm proline sprayed on leaves) was 24, the “Harvested number of pears” value (Japanese pear “Kousui” [5]; fruit size S, harvest day August 18, 200 ppm proline sprayed on leaves) was 7 and the “Harvested number of pears” value (Japanese pear “Kousui” [5]; fruit size S, harvest day August 21, 200 ppm proline sprayed on leaves) was 10. The “Harvested number of pears” value (Japanese pear “Kousui” [5]; fruit size S, harvest day August 24, 200 ppm proline sprayed on leaves) was 7 and the “ripening of fruits (fruit number for every harvest day)” value (Japanese pear “Kousui” [5]; proline-treated section vs control section) was “fruits ripened earlier as a tendency”.
